The first assay concerns the target T1, Caspase-3 (Homo sapiens, UniProt P42574).
T1 sequence (P42574 whole entry): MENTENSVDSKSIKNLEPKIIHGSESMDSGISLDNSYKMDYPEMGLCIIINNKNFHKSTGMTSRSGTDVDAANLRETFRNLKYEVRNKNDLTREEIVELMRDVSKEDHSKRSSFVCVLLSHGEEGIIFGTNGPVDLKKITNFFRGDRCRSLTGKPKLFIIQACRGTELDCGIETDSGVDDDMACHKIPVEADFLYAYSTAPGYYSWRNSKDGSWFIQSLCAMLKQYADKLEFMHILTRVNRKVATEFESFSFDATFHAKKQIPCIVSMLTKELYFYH
Description: Inhibitory concentration required against human Caspase-3.
Conditions: not given
As for `O=C[C@H](CC(=O)O)NC(=O)c1ccncc1`, the half-maximal inhibitory concentration (IC50) is more than 200 µM.

The next assay relates to NT2. Description: Inhibitory concentration required against NT2 cells. The conditions noted are these: Homo sapiens.
With `O=C(O)C[C@H](NC(=O)c1cncc(S(=O)(=O)NC2CC2)c1)C(=O)Oc1ccccc1`, the IC50 is 4.3 µM.

`CN(C1CC1)S(=O)(=O)c1cncc(C(=O)N[C@@H](CC(=O)O)C(=O)CSCc2ccc(F)cc2)c1` returned a concentration for half-maximal inhibition (IC50) of 22 µM. For the molecule `CCCN(CCC)S(=O)(=O)c1cncc(C(=O)N[C@@H](CC(=O)O)C(=O)CSCc2ccc(F)cc2)c1`, the IC50 is 25 µM. The molecule `CC(C)CN(CC(C)C)C(=O)c1cncc(C(=O)N[C@@H](CC(=O)O)C(=O)CSCc2ccc(F)cc2)c1` registered a 50% inhibitory concentration (IC50) of 39 µM.

For the molecule `CC(=O)N[C@@H](CC(=O)O)C(=O)N[C@@H](CCC(=O)O)C(=O)N[C@H](C(=O)N[C@H](C=O)CC(=O)O)C(C)C`, the IC50 was more than 100 µM. Consider `O=C(O)C[C@H](NC(=O)c1cncc(S(=O)(=O)NCc2ccccc2)c1)C(=O)CSCc1ccc(F)cc1`, for which inhibition was half-maximal at 59 µM (IC50). `O=C[C@H](CC(=O)O)NC(=O)c1cncc(S(=O)(=O)NC2CC2)c1` showed an IC50 of 57 µM. On to `CCN(C(=O)c1cncc(C(=O)N[C@@H](CC(=O)O)C(=O)CSCc2ccc(F)cc2)c1)C(C)C`, for which it took 16 µM to reach half-maximal inhibition (IC50).

Turning to `CN(C)S(=O)(=O)c1cncc(C(=O)N[C@@H](CC(=O)O)C(=O)CSCc2ccc(F)cc2)c1`, half-maximal inhibition (IC50) required 21 µM.

`CCN(CC)C(=O)c1cncc(C(=O)N[C@@H](CC(=O)O)C(=O)CSCc2ccc(F)cc2)c1` returned an IC50 of more than 100 µM.

`O=C(O)C[C@H](NC(=O)c1cncc(S(=O)(=O)NC2CC2)c1)C(=O)CSCc1ccc(F)cc1` gave an IC50 of 8 µM. Turning to `CCCN(CCC)C(=O)c1cncc(C(=O)N[C@@H](CC(=O)O)C(=O)CSCc2ccc(F)cc2)c1`, the IC50 is more than 100 µM. For `CCN(CC)S(=O)(=O)c1cncc(C(=O)N[C@@H](CC(=O)O)C(=O)CSCc2ccc(F)cc2)c1`, the IC50 stood at 12 µM. Still for that read-out and setting: the result for `O=C(O)C[C@H](NC(=O)c1cncc(S(=O)(=O)NC2CC2)c1)C(=O)COC(=O)c1cccc2ccccc12` reads 1.3 µM; that for `O=C(O)C[C@H](NC(=O)c1cncc(S(=O)(=O)NC2CC2)c1)C(=O)CNCc1c(F)cccc1F`, 53 µM.

Usually IC50 stands for the concentration at which inhibition is half-maximal. Read a low IC50 as higher potency.

These data come from ChEMBL document CHEMBL1136077, “Nicotinyl aspartyl ketones as inhibitors of caspase-3” (Bioorg Med Chem Lett, 2003).
